The numbers were not newly measured in US12274695B2, “Pharmaceutical drug therapy for autism” (priority 2020, dated 2025), which cites them from elsewhere.

The conditions of series [1]: in vivo.
In the next series the test system is humans. The conditions noted are these: in humans.
Another series relates to fear conditioning. As to conditions: preclinical, after fear conditioning.
Series [2] deals with mouse model of Alzheimer's disease (AD).
For series [3], the system named is monkey model of schizophrenia.
The subject of another series is adults with ASD. The conditions noted are these: 7 mg transdermal nicotine, 1 week.
The subject of series [4] is BTBR T+Itpr3 tf/J (BTBR) mice.

Where two headings read alike, the source gives them in different places.

On to `CN1C(=O)CC[C@H]1c1cccnc1` [Cotinine], for which, in series [1], the blood-brain barrier crossing entry is recorded as “crosses the blood-brain barrier” and the “plasma half-life compared with nicotine” value is on record as “longer”. In addition, the “addictive or cardiovascular effects” value with humans is listed as “no addictive or cardiovascular effects”. Also, the “extinction of fear memory and anxiety” value in the series with fear conditioning is given as “facilitated”. In addition, in series [2], the working memory result was “improved”. For the same compound, the working memory result in series [3] was “improved”.
Take `CN1CCCC1c1cccnc1` (stereo not drawn) [nicotine, Nicotine]: the Sleep ratings result in the series with adults with ASD is listed as “improved”. Further, the “Aberrant Behavior Checklist-Irritability (ABC-I) subscale change from baseline” value with adults with ASD (compared to placebo, five subjects) is listed as “improved”. For the same compound, in the series on adults with ASD (eight subjects), the tolerability result was “tolerated nicotine treatment well”. Also, in series [4] (BTBR mice), the repetitive behaviors entry is “decrease repetitive behaviors” and the social deficits entry is “improve social deficits”. The “hotplate latency compared to vehicle” value in series [4] (BTBR mice, higher doses) is reported as “decreased”. The “hotplate latency compared to vehicle” value in series [4] (BTBR mice, lower doses) is reported as “increased”. Further, the “antinociceptive effects to noxious heat” value in series [4] (control mice) was “only at the high dose”. In series [4] (mice with Autism mutations, four-week nicotine treatment), the cold plate resistance entry is reported as “increase”.
